Experimental data as given in patent US12384780B2, “PARP1 inhibitors and uses thereof” (XinThera, Inc., priority 2022, dated 2025).

What was measured:
PARP1 = target: T1, PARP1 (Homo sapiens, UniProt P09874); assay: Biochemical fluorescent polarization (FP) assay, displacement of PARPi-FL, PARP1; format: binding; settings: 20 nM protein, 3 nM PARPi-FL, 4 h at room temperature; for IC50: read-out: FP PARP1 pIC50 (converted)
T1 construct: made in house
Protocol: (§1) Compounds were characterized using an assay measuring the displacement of a commercially available fluorescently labeled PARP 1/2 inhibitor (PARPi-FL, Tocris Biosciences, #6461) as exemplified in assays performed in WO2014/064149 and WO2021/013735A1. The assay was performed utilizing the following method: Compounds were dissolved in DMSO an Echo550 liquid handler was utilized to make serial dilations in the desired concentration range in Optiplate-384F plates. 100% DMSO was used for the high (with protein) and low (without protein) control samples. 20 nL of compound or DMSO alone was added to individual assay plate wells. PARP1 and PARP2 protein were expressed, purified, and diluted in assay buffer containing 50 mM Tris pH 8.0, 0.001% Triton X-100, 10 mM MgCl2, 150 mM NaCl to a final concentration of 20 nM. The PARPi-FL was then added at a final concentration of 3 nM. The assay plate was centrifuged at 1000 rpm for 1 min and incubated for 4 h at room temperature. […] [formula]

[1] = tested on: MDA-MB-436 (mutated BRCA1) cells; assay: Cell growth inhibition assay (CellTiter-Glo), MDA-MB-436; format: cell-based; settings: Homo sapiens, MDA-MB-436, 168 h, 500 cells/well, 7 days, CellTiter Glo 2.0; read-out: MDA-MB-436 pEC50 (converted)
Protocol: (§2) Cell proliferation was measured through the cell viability assay using DLD-1 BRCA2(−/−) and parental isogenic pair and MDA-MB-436 (mutated BRCA1) cell lines. The CellTiter-Glo (CTG) based cell viability assay is designed to determine the number of viable cells in the culture because of compound effect, by quantifying ATP, which indicates the presence of metabolically active cells.
(§3) DLD-1 BRCA2(−/−) and parental isogenic pair were cultured in RPMI 1640 supplemented with […] (FBS), and […] cells were cultured in DMEM supplemented with 10% FBS. Both were cultured at 37° C. with […]. Invention compounds were distributed to the 384 well plate (Corning, 3764) using Echo acoustic liquid handler to form a 1:3 serially diluted final concentration with top dose of 10 or 30 μM. The cells were seeded into the plate in the density of 50 cells/well (DLD-1 parental), 200 cells/well (DLD-1 BRCA2−/−), or 500 cells/well (MDA-MB-436). After a short spun, the cells were cultured in a well moisturized incubator at 37° C. with 5% CO2 for 7 days without disturbance. The cell viability was measured by CellTiter Glo 2.0 assay kit (Promega, G9243), and growth inhibition rate was calculated and plotted against final compound concentration, and the data were fitted in Xfit to generate IC50 values.

PARP2 = target: T2, PARP2 (Homo sapiens, UniProt Q9UGN5); assay: Biochemical fluorescent polarization (FP) assay, displacement of PARPi-FL, PARP2; format: binding; settings: 20 nM protein, 3 nM PARPi-FL, 4 h at room temperature; read-out: FP PARP2 pIC50 (converted)
T2 construct: made in house
T2 sequence (Q9UGN5 whole entry): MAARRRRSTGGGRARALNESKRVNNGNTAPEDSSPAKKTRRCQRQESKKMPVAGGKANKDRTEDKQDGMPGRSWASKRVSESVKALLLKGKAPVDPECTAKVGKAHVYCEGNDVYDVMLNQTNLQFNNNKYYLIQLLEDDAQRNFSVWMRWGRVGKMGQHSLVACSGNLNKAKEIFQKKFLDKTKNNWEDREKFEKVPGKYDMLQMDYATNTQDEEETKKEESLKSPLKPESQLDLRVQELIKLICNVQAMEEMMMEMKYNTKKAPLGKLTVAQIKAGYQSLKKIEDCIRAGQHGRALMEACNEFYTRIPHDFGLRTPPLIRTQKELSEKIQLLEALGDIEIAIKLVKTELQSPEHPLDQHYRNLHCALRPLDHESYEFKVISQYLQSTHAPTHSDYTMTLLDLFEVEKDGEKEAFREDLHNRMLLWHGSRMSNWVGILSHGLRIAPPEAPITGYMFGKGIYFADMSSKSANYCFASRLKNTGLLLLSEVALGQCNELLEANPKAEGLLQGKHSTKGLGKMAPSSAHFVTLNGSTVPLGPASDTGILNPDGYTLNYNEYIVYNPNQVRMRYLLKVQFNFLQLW
Protocol: as §1

DLD-1 BRCA2(−/−) cells = assay: Cell growth inhibition assay (CellTiter-Glo), DLD-1 BRCA2(−/−); format: cell-based; settings: Homo sapiens, DLD-1, 168 h; 200 cells/well, 7 days, CellTiter Glo 2.0; read-out: DLD-1 BRCA2(−/−) pEC50 (converted)
Protocol: as §2, §3

T1 sequence (P09874 whole entry): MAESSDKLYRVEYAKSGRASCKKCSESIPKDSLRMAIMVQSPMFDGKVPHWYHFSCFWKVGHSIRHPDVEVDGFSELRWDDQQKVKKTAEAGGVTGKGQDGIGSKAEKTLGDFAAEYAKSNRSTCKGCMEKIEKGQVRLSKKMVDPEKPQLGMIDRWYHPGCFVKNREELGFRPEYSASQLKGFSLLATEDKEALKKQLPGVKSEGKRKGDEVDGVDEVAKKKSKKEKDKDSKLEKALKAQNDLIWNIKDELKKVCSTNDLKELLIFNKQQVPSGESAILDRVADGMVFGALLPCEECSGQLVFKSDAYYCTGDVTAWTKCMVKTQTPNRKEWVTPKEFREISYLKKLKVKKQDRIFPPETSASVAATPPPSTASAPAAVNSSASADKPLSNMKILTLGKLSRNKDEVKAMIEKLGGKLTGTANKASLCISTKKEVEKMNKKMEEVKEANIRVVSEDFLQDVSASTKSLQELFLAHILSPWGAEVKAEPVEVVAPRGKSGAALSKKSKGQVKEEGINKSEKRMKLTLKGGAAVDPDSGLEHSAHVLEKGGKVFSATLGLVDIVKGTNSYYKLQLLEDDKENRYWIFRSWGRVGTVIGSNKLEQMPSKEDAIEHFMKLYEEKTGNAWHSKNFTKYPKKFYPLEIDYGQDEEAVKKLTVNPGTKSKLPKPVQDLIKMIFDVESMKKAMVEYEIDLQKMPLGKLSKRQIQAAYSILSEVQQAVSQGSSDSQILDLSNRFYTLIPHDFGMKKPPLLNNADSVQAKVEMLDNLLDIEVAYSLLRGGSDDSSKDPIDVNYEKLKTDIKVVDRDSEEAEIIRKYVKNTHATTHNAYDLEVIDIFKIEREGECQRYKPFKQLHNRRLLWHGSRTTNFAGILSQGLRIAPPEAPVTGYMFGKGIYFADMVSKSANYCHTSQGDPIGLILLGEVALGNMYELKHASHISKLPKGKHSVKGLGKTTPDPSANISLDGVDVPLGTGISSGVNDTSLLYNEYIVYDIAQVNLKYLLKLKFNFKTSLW

Row | IC50 (PARP1) [nM] | EC50 [1] [nM] | IC50 (PARP2) [nM] | EC50 (DLD-1 BRCA2(−/−) cells) [nM] | FP PARP1 pIC50 (PARP1) | SMILES
1 | 10 | 1.58 | 3160 | 2.51 |  | Cc1cc2ncc(CN3CCN(c4ccc(C#N)c(F)c4)CC3)cc2[nH]c1=O [Example 44]
2 |  | 3.98 | > 100000 | 3.98 | 8.5 | CCc1nc2c(F)cc(CN3CCN(c4ccc(C#N)cn4)CC3)cc2[nH]c1=O [Example 5, 6-(4-((2-ethyl-8-fluoro-3-oxo-3,4-dihydroquinoxalin-6-yl)methyl)piperazin-1-yl)nicotinonitrile]
3 | 15.8 | 1.26 | 794 | 1.58 |  | [2H]C([2H])(c1cnc2cc(C(F)F)c(=O)[nH]c2c1)N1CCN(c2ccc(C#N)cn2)CC1 [Example 63]
4 |  | 2.51 |  | 3.16 |  | CCc1cc2ncc(CN3CCN(c4cnc(Cl)cc4C#N)CC3)cc2[nH]c1=O [Example 65]
5 | 6.31 | 0.501 | 1580 | 0.501 |  | CCc1cc2ncc(CN3CCN(c4ccc(C#N)cc4)CC3)cc2[nH]c1=O [Example 9]
6 | 15.8 | > 1000 | > 100000 | > 1000 |  | Cc1cc2ncc(CN3CCN(c4ncc(C#N)cc4F)CC3)cc2[nH]c1=O [Example 30]
7 | 6.31 | 3.16 | > 100000 | 3.98 |  | Cc1cc2ncc(CN3CCN(c4ccc(C#N)nc4F)CC3)cc2[nH]c1=O [Example 78]
8 |  | 1 |  | 1.26 |  | CCc1cc2ncc(CN3CCN(c4ccc(C#N)cc4F)CC3)cc2[nH]c1=O [Example 45]
9 | 10 | 1.58 |  | 2 |  | N#Cc1ccc(N2CCN(Cc3cnc4cc(C5CC5)c(=O)[nH]c4c3)CC2)c(F)c1 [Example 46]
10 | 63.1 | 1.26 |  | 1.58 |  | N#Cc1ccc(N2CCN(Cc3cnc4cc(C(F)F)c(=O)[nH]c4c3)CC2)c(F)n1 [Example 62]
11 | 10 | 39.8 | 50100 | 50.1 |  | CCc1cc2ncc(CN3CCN(c4ccc(F)nc4)CC3)cc2[nH]c1=O [Example 34]
12 | 6.31 | 1.26 | > 100000 | 2 |  | CCc1cc2ncc(CN3CCN(c4ccc(C#N)cc4OC)CC3)cc2[nH]c1=O [Example 39]
13 | 10 | 50.1 | > 100000 | 79.4 |  | Cc1cc2ncc(CN3CCN(c4ccc(C#N)cn4)[C@H](C)C3)cc2[nH]c1=O [Example 24]
14 | 10 | 31.6 |  | 25.1 |  | Cc1nc2ccc(CN3CCN(c4ccc(C#N)cn4)CC3)c(F)c2[nH]c1=O [Example 70]
15 | 20 | 2.51 |  | 3.98 |  | Cc1cc2ncc(CN3CCN(c4ccc(Cl)cc4C#N)CC3)cc2[nH]c1=O [Example 51]
16 | 15.8 | 31.6 |  | 20 |  | Cc1nc2ccc(CN3CCN(c4ccc(C#N)nc4F)CC3)c(F)c2[nH]c1=O [Example 74]
17 | 63.1 | 79.4 |  | 63.1 |  | CCc1cc2ncc(CN3CCN(c4ncc(C#N)cc4F)CC3)cc2[nH]c1=O [Example 54]
18 | 63.1 | 5.01 |  | 5.01 |  | N#Cc1ccc(N2CCN(Cc3cnc4cc(Cl)c(=O)[nH]c4c3)CC2)c(F)c1 [Example 76]

Row | IC50 (PARP1) [nM] | EC50 [1] [nM] | IC50 (PARP2) [nM] | EC50 (DLD-1 BRCA2(−/−) cells) [nM] | FP PARP1 pIC50 (PARP1) | SMILES
19 | 15.8 | 63.1 |  | 63.1 |  | C#Cc1cc2ncc(CN3CCN(c4ccc(C#N)nc4)CC3)cc2[nH]c1=O [Example 1, 5-{4-[(7-ethynyl-6-oxo-5H-1,5-naphthyridin-3-yl)methyl]piperazin-1-yl}pyridine-2-carbonitrile]
20 | 25.1 | 0.501 |  | 0.631 |  | Cc1cc(C#N)ccc1N1CCN(Cc2cnc3cc(C(F)F)c(=O)[nH]c3c2)CC1 [Example 75]
21 | 10 | 6.31 |  | 10 |  | N#Cc1ccc(N2CCN(Cc3ccc4cc(Cl)c(=O)[nH]c4c3F)CC2)nc1 [Example 83, 6-{4-[(3-chloro-8-fluoro-2-oxo-1H-quinolin-7-yl)methyl]piperazin-1-yl}pyridine-3-carbonitrile]
22 |  | 2 |  | 2 |  | CCc1cc2ncc(CN3CCN(c4ccc(F)cn4)CC3)cc2[nH]c1=O [Example 4]
23 | 10 | 12.6 |  | 10 |  | Cc1nc2c(F)cc(CN3CCN(c4ccc(C#N)cn4)CC3)cc2[nH]c1=O [Example 49, 6-{4-[(8-fluoro-2-methyl-3-oxo-4H-quinoxalin-6-yl)methyl]piperazin-1-yl}pyridine-3-carbonitrile]
24 | 15.8 | 1 |  | 1.26 |  | N#Cc1ccc(N2CCN(Cc3cnc4cc(C(F)F)c(=O)[nH]c4c3)CC2)c(C(F)F)c1 [Example 80]
25 | 31.6 | 39.8 |  | 100 |  | Cc1c(C(F)F)c2ncc(CN3CCN(c4ccc(C#N)cn4)CC3)cc2[nH]c1=O [Example 82, 6-(4-((8-(difluoromethyl)-7-methyl-6-oxo-5,6-dihydro-1,5-naphthyridin-3-yl)methyl)piperazin-1-yl)nicotinonitrile]
26 |  | 2 |  | 2.51 |  | N#Cc1ccc(N2CCN(Cc3cnc4cc(C5CC5)c(=O)[nH]c4c3)CC2)nc1 [Example 17]
27 | 25.1 | 1.58 |  | 2 |  | Cc1cc2ncc(CN3CCN(c4ccc(C#N)cc4C#N)CC3)cc2[nH]c1=O [Example 50]
28 | 10 | 7.94 |  | 2.51 |  | O=c1[nH]c2cc(CN3CCN(c4ccc(F)cn4)CC3)cnc2cc1Cl [Example 47, 3-chloro-7-{[4-(5-fluoropyridin-2-yl)piperazin-1-yl]methyl}-1H-1,5-naphthyridin-2-one]
29 | 10 | 0.631 |  | 0.631 |  | N#Cc1ccc(N2CCN(Cc3cnc4cc(C(F)F)c(=O)[nH]c4c3)CC2)c(Cl)n1 [Example 81]
30 | 7.94 | 10 |  | 10 |  | CCc1nc2cc(F)c(CN3CCN(c4ccc(C#N)cn4)CC3)cc2[nH]c1=O [Example 12, 6-{4-[(2-ethyl-7-fluoro-3-oxo-4H-quinoxalin-6-yl)methyl]piperazin-1-yl}pyridine-3-carbonitrile]
31 | 15.8 | 63.1 |  | 100 |  | CCc1cc2ncc(CN3CCN(c4ncc(F)cc4C#N)CC3)cc2[nH]c1=O [Example 56]
32 | 15.8 | 39.8 |  | 63.1 |  | Cc1nc2c(F)c(F)c(CN3CCN(c4ccc(C#N)cn4)CC3)cc2[nH]c1=O [Example 72]
33 | 25.1 | 15.8 |  | 20 |  | Cc1nc2ccc(CN3CCN(c4ccc(C#N)nc4Cl)CC3)c(F)c2[nH]c1=O [Example 73]
34 | 12.6 | 5.01 |  | 6.31 |  | Cc1cc2ncc(CN3CCN(c4cc(F)c(F)cc4C#N)CC3)cc2[nH]c1=O [Example 53]
35 | 10 | 15.8 |  | 12.6 |  | Cc1cc2ccc(CN3CCN(c4ccc(C#N)cn4)CC3)c(F)c2[nH]c1=O [Example 71, 6-{4-[(8-fluoro-3-methyl-2-oxo-1H-quinolin-7-yl)methyl]piperazin-1-yl}pyridine-3-carbonitrile]

Row | SMILES | IC50 (PARP1) [nM] | EC50 [1] [nM] | IC50 (PARP2) [nM] | EC50 (DLD-1 BRCA2(−/−) cells) [nM] | FP PARP1 pIC50 (PARP1)
36 | CCc1cc2ncc(CN3CCN(c4ccc(Cl)cn4)CC3)cc2[nH]c1=O [Example 8] | 15.8 | 3.16 | > 100000 | 5.01 | 
